Measurements taken from patent US7962204B2 (priority 2001, dated 2011).

Tested on: behaviorally-diagnosed psychiatric conditions (DSM categories)
Design: species or system human
Conditions: in vivo
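Throughout, for use code of agent in 301.7 Antisocial Personality Disorder: N marks novel agent found effective in subject subgroups.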
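Throughout, for use code of agent in 301.83 Borderline Personality Disorder: N marks novel agent found effective in subject subgroups.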
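Throughout, for use in 307.50 Eating Disorder NOS: N marks novel agent found effective in subject subgroups.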
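Throughout, for use in 307.51 Bulimia Nervosa: N marks novel agent found effective in subject subgroups.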
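Throughout, for use in 313.81 Oppositional Defiant Disorder: N marks novel agent found effective in subject subgroups.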

CC(NC(C)(C)C)C(=O)c1cccc(Cl)c1 (stereo not drawn) [BUPROPRION (REGULAR TABS)]
N: use code of agent in 301.20 Schizoid Personality Disorder | use code of agent in 301.22 Schizotypal Personality Disorder | use code of agent in 301.4 Obsessive-Compulsive Personality Disorder | use code of agent in 301.50 Histrionic Personality Disorder | use code of agent in 301.6 Dependent Personality Disorder | use code of agent in 301.7 Antisocial Personality Disorder | use code of agent in 301.82 Avoidant Personality Disorder | use code of agent in 301.83 Borderline Personality Disorder | use code of agent in 302.71 Hypoactive Sexual Desire Disorder | use code of agent in 307.42 Primary Insomnia | use code of agent in 311 Depressive Disorder NOS | use code of agent in 316 Psychological Factors Affecting Medical Condition, Atypical Asthma | use code of agent in 316 Psychological Factors Affecting Medical Condition, Neurodermatitis | use code of agent in Bipolar I Disorder | use in 294.8 Amnestic Disorder | use in 294.9 Cognitive Disorder NOS | use in 296.89 Bipolar II Disorder | use in 299.80 Pervasive Developmental Disorder NOS | use in 300.00 Anxiety Disorder NOS | use in 300.02 Generalized Anxiety Disorder | use in 300.22 Agoraphobia Without History of Panic Disorder | use in 300.23 Social Phobia | use in 300.29 Specific Phobia | use in 300.3 Obsessive-Compulsive Disorder | use in 301.13 Cyclothymic Disorder | use in 307.1 Anorexia Nervosa | use in 307.50 Eating Disorder NOS | use in 307.51 Bulimia Nervosa | use in 307.9 Communication Disorder NOS | use in 309.21 Separation Anxiety Disorder | use in 309.81 Posttraumatic Stress Disorder | use in 312.30 Impulse-Control Disorder NOS | use in 312.31 Pathological Gambling | use in 312.34 Intermittent Explosive Disorder | use in 312.39 Trichotillomania | use in 312.8 Conduct Disorder | use in 313.81 Oppositional Defiant Disorder | use in 315.9 Learning Disorder NOS | use in Attention-Deficit/Hyperactivity Disorder | use in Panic Disorder | use of the agent in the diagnostic category (C = common use; N = novel use from rEEG features)

Cc1ccc(-c2nc3ccc(C)cn3c2CC(=O)N(C)C)cc1 [ZOLIPIDEM]
N: use of the agent in the diagnostic category (C = common use; N = novel use from rEEG features)

O=C(NCCN1CCOCC1)c1ccc(Cl)cc1 [MOCLOBEMIDE]
N: use code of agent in 302.71 Hypoactive Sexual Desire Disorder | use code of agent in 316 Psychological Factors Affecting Medical Condition, Hypertensive Disorder NOS

CC(C)CC(N(C)C)C1(c2ccc(Cl)cc2)CCC1 (stereo not drawn) [SILBTRMIN]
N: use code of agent in 312.34 Intermittent Explosive Disorder | use in 307.22 Chronic Motor or Vocal Tic Disorder | use of the agent in the diagnostic category (C = common use; N = novel use from rEEG features)

COCCc1ccc(OCC(O)CNC(C)C)cc1 (stereo not drawn) [METOPOLOL]
N: use code of agent in 296.89 Bipolar II Disorder | use code of agent in 296.90 Mood Disorder NOS | use code of agent in 301.13 Cyclothymic Disorder | use code of agent in 301.20 Schizoid Personality Disorder | use code of agent in 301.22 Schizotypal Personality Disorder | use code of agent in 301.4 Obsessive-Compulsive Personality Disorder | use code of agent in 301.50 Histrionic Personality Disorder | use code of agent in 301.6 Dependent Personality Disorder | use code of agent in 301.7 Antisocial Personality Disorder | use code of agent in 301.82 Avoidant Personality Disorder | use code of agent in 301.83 Borderline Personality Disorder | use code of agent in 307.42 Primary Insomnia | use code of agent in 311 Depressive Disorder NOS | use code of agent in 312.34 Intermittent Explosive Disorder | use code of agent in 312.39 Trichotillomania | use code of agent in 316 Psychological Factors Affecting Medical Condition, Hypertensive Disorder NOS | use code of agent in 316 Psychological Factors Affecting Medical Condition, Irritable Bowel Syndrome | use code of agent in 316 Psychological Factors Affecting Medical Condition, Neurodermatitis | use code of agent in Bipolar I Disorder | use code of agent in Major Depressive Disorder, Recurrent | use code of agent in Major Depressive Disorder, Single Episode | use in 294.9 Cognitive Disorder NOS | use in 299.00 Autistic Disorder | use in 299.80 Pervasive Developmental Disorder NOS | use in 300.00 Anxiety Disorder NOS | use in 300.02 Generalized Anxiety Disorder | use in 300.22 Agoraphobia Without History of Panic Disorder | use in 300.23 Social Phobia | use in 300.3 Obsessive-Compulsive Disorder | use in 307.1 Anorexia Nervosa | use in 307.20 Tic Disorder NOS | use in 307.22 Chronic Motor or Vocal Tic Disorder | use in 307.23 Tourette's Disorder | use in 307.50 Eating Disorder NOS | use in 307.51 Bulimia Nervosa | use in 309.21 Separation Anxiety Disorder | use in 309.81 Posttraumatic Stress Disorder | use in 312.30 Impulse-Control Disorder NOS | use in 312.31 Pathological Gambling | use in 312.8 Conduct Disorder | use in 313.81 Oppositional Defiant Disorder | use in 315.9 Learning Disorder NOS | use in Attention-Deficit/Hyperactivity Disorder | use in Panic Disorder | use of the agent in the diagnostic category (C = common use; N = novel use from rEEG features)

N[C@@H](Cc1ccccc1)C(=O)O [PHENYLALANINE, reference compound]
N: agent found effective in 299.00 Autistic Disorder | agent found effective in 300.00 Anxiety Disorder NOS | agent found effective in 300.02 Generalized Anxiety Disorder | agent found effective in 300.22 Agoraphobia Without History of Panic Disorder | agent found effective in 300.23 Social Phobia | agent found effective in 300.29 Specific Phobia | agent found effective in 300.3 Obsessive-Compulsive Disorder | agent found effective in 309.81 Posttraumatic Stress Disorder | agent found effective in Panic Disorder | use in Dementia of the Alzheimer's Type

NC(=O)C[S+]([O-])C(c1ccccc1)c1ccccc1 (stereo not drawn) [MODAFINIL]
N: use code of agent in 294.8 Amnestic Disorder

NNCCc1ccccc1 [PHENALZINE]
N: use code of agent in 301.20 Schizoid Personality Disorder | use code of agent in 301.4 Obsessive-Compulsive Personality Disorder | use code of agent in 301.50 Histrionic Personality Disorder | use code of agent in 301.6 Dependent Personality Disorder | use code of agent in 301.7 Antisocial Personality Disorder | use code of agent in 301.82 Avoidant Personality Disorder | use code of agent in 301.83 Borderline Personality Disorder | use code of agent in 302.71 Hypoactive Sexual Desire Disorder | use code of agent in 307.42 Primary Insomnia | use code of agent in 311 Depressive Disorder NOS | use code of agent in 316 Psychological Factors Affecting Medical Condition, Atypical Asthma | use code of agent in 316 Psychological Factors Affecting Medical Condition, Neurodermatitis | use code of agent in Bipolar I Disorder | use code of agent in Major Depressive Disorder, Recurrent | use code of agent in Major Depressive Disorder, Single Episode | use in 294.9 Cognitive Disorder NOS | use in 296.89 Bipolar II Disorder | use in 296.90 Mood Disorder NOS | use in 299.80 Pervasive Developmental Disorder NOS | use in 300.00 Anxiety Disorder NOS | use in 300.22 Agoraphobia Without History of Panic Disorder | use in 300.23 Social Phobia | use in 300.29 Specific Phobia | use in 300.3 Obsessive-Compulsive Disorder | use in 300.4 Dysthymic Disorder | use in 301.13 Cyclothymic Disorder | use in 307.1 Anorexia Nervosa | use in 307.50 Eating Disorder NOS | use in 307.51 Bulimia Nervosa | use in 309.21 Separation Anxiety Disorder | use in 309.81 Posttraumatic Stress Disorder | use in 312.31 Pathological Gambling | use in 312.34 Intermittent Explosive Disorder | use in 312.39 Trichotillomania | use in 312.8 Conduct Disorder | use in 313.81 Oppositional Defiant Disorder | use in 315.9 Learning Disorder NOS | use in Attention-Deficit/Hyperactivity Disorder | use in Panic Disorder | use of the agent in the diagnostic category (C = common use; N = novel use from rEEG features)

Cc1nc2n(c(=O)c1CCN1CCC(c3noc4cc(F)ccc34)CC1)CCCC2 [RISPERDONE]
N: use in 300.22 Agoraphobia Without History of Panic Disorder
